Test results as given in PMC7101335, “Aryl-alkyl-lysines: Novel agents for treatment of C. difficile infection” (Scientific Reports, 2020).
≈ marks a conversion by molar mass, not a printed value. Like-named read-outs stand apart in the source and are kept apart here.

Legend:
[1] = Caco-2 bidirectional permeability assay; format: in vitro ADME, human; settings: human, Caco-2
Protocol: The Caco-2 bidirectional permeability assay was conducted as described in previous reports[29],[30],[41],[42]. The Caco-2 cell line is similar to human enterocytes and expresses P-glycoprotein and other relevant metabolic enzymes that affect absorption of orally-administered xenobiotics across the intestinal mucosa[34],[43],[44]. Caco-2 cells were grown in tissue culture flasks, trypsinized (by rinsing cells with phosphate-buffered saline and then treating with trypsin-EDTA for 5–10 minutes at 37 °C with 5% CO2 until cells detached), suspended in Dulbecco’s Modified Eagle Medium with 10% fetal bovine serum, 1% nonessential amino acids and penicillin-streptomycin, and then seeded onto wells of a Millipore 96-well Caco-2 plate. Cells were cultured at 37 °C with 5% CO2 until confluent (approximately three weeks) and media was changed at relevant time points. For Apical to Basolateral (A → B) permeability, the test article was added to the apical (A) compartment and the amount of permeation (Papp, as calculated below) to the basolateral (B) compartment was determined; for Basolateral to Apical (B → A) permeability, the test article was added to the B compartment and the amount of permeation to the A compartment was determined. […] Caco-2 cells were incubated with these buffers for two hours, and the receiver side buffer was removed for analysis by LC/MS/MS. To verify the tight junctions and integrity of Caco-2 cell monolayers, aliquots of the cell buffers were analyzed by fluorescence (Lucifer yellow transport ≤ 2%). Any deviations from control values are reported. Data are expressed as permeability (Papp) = (dQ/dt)/(C0A) where dQ/dt is the rate of permeation, C0 is the initial concentration of test agent, and A is the area of the monolayer.

Clostridium difficile = assay: Broth microdilution MIC against Clostridium difficile strains; format: cell-based; settings: Clostridioides difficile
Protocol: The broth microdilution assay was utilized following the Clinical and Laboratory Standards Institute (CLSI) guidelines with slight modifications. Briefly, C. difficile strains were grown on anaerobic blood agar plates (Becton Dickinson, BD) and suspended in brain heart infusion supplemented broth (Brain heart infusion medium, BD, supplemented with yeast extract, L-cysteine, Vitamin K1 and Hemin, Sigma) to achieve a bacterial concentration of ~10^5 CFU/ml. The bacterial suspension was seeded in 96-well plates containing drugs/compounds, in duplicate, at the required concentration. Plates were then incubated at 37 °C anaerobically for 48 hours. MICs reported are the lowest concentration of each agent that inhibited the visual growth of bacteria.

E. faecalis = assay: Broth microdilution MIC against E. faecalis strains; format: cell-based; settings: Enterococcus faecalis, read-out: Minimum inhibitory concentration
[2] = system: vancomycin-resistant and vancomycin-susceptible strains of Enterococcus; assay: Broth microdilution MIC against Enterococcus strains (E. faecalis and E. faecium, summary in text); format: cell-based; settings: all E. faecalis and E. faecium strains tested, vancomycin-resistant and -sensitive
[3] = system: human ileocecal colorectal adenocarcinoma cell line (HRT-18); assay: Cytotoxicity, MTS assay, HRT-18 cells; format: cell-based; settings: 32 µg mL^−1, 2 hours
Protocol: Briefly, ~2 × 10^4 cells suspended in 100 µL of RPMI-1640 supplemented with 10% horse serum were seeded in a 96-well plate and incubated at 37 °C with 5% CO2. The cells were cultured for 24 hours until reaching ~90% confluency. The cells were further incubated with the aforementioned concentrations of the compounds for 2 hours. Afterwards, culture media were discarded and the cells in each well were washed with PBS and 100 µL of cell culture media were added prior to addition of the assay reagent MTS 3-(4,5-dimethylthiazol-2-yl)-5-(3-carboxymethoxyphenyl)-2-(4-sulfophenyl)-2H-tetrazolium) (Promega). The plates were incubated for 4 hours at 37 °C in a humidified 5% CO2 atmosphere. The absorbance was recorded at 490 nm and the corrected absorbance readings (actual absorbance readings for each treatment subtracted from background absorbance) were taken using a kinetic ELISA microplate reader (SpectraMax i3x, Molecular Devices, Sunnyvale, CA, USA). The quantity of viable cells after treatment with each compound was expressed as a percentage of the control, DMSO. Asterisk (*) denotes a significant difference from the DMSO-treated cells using 2-way analysis of variance (ANOVA) followed by Dunnett’s pairwise comparison.

E. faecium = assay: Broth microdilution MIC against E. faecium strains; format: cell-based; settings: Enterococcus faecium, read-out: Minimum inhibitory concentration
[4] = C. difficile Isolate 1 (NR-13427), read-out: Minimum inhibitory concentration
[5] = C. difficile Isolate 2 (NR-13428), read-out: Minimum inhibitory concentration
[6] = C. difficile Isolate 4 (NR-13430), read-out: Minimum inhibitory concentration
[7] = C. difficile Isolate 5 (NR-13431), read-out: Minimum inhibitory concentration
[8] = C. difficile Isolate 6 (NR-13432), read-out: Minimum inhibitory concentration
[9] = C. difficile Isolate 9 (NR-13435), read-out: Minimum inhibitory concentration
[10] = C. difficile Isolate 10 (NR-13436), read-out: Minimum inhibitory concentration
[11] = C. difficile P2 (NR-32883), read-out: Minimum inhibitory concentration
[12] = C. difficile P4 (NR-32889), read-out: Minimum inhibitory concentration
[13] = C. difficile P8 (NR-32888), read-out: Minimum inhibitory concentration
[14] = C. difficile P13 (NR-32891), read-out: Minimum inhibitory concentration
[15] = C. difficile P15 (NR-32892), read-out: Minimum inhibitory concentration
[16] = C. difficile P20 (NR-32896), read-out: Minimum inhibitory concentration
[17] = C. difficile P21 (NR-32897), read-out: Minimum inhibitory concentration
[18] = C. difficile P29 (NR-32903), read-out: Minimum inhibitory concentration
[19] = across all tested strains of C. difficile
[20] = E. faecalis SF28073 (vancomycin-resistant)
[21] = E. faecium E417 (vancomycin-resistant)

Question: Which efflux ratio at 2 h ([1]; Re = (Papp B→A)/(Papp A→B)) does the source give for CC(=O)CC(c1ccccc1)c1c(O)c2ccccc2oc1=O (stereo not drawn) [Warfarin] here?
Answer: 1.54

Question: And the Papp A→B at 2 h ([1]; apical (pH 6.5) to basolateral (pH 7.4), two hours)?
Answer: 12.7 ×10⁻⁶ cm/s

Question: And the Papp B→A at 2 h ([1]; basolateral to apical, two hours)?
Answer: 19.6 ×10⁻⁶ cm/s

Question: Which MIC (Clostridium difficile; [4]) does the source give for CCCCCCCCN(Cc1cccc2ccccc12)C(=O)[C@@H](N)CCCCN [NCK-8] here?
Answer: 8 µg/mL (≈ 20.1 µM)

Question: And the MIC (Clostridium difficile; [5])?
Answer: 8 µg/mL (≈ 20.1 µM)

Question: And the MIC (Clostridium difficile; [6])?
Answer: 8 µg/mL (≈ 20.1 µM)

Question: And the MIC (Clostridium difficile; [7])?
Answer: 2 µg/mL (≈ 5.03 µM)

Question: What about the MIC (Clostridium difficile; [8]) of the same molecule?
Answer: 8 µg/mL (≈ 20.1 µM)

Question: What about the MIC (Clostridium difficile; [9]) of the same molecule?
Answer: 4 µg/mL (≈ 10.1 µM)

Question: And the MIC (Clostridium difficile; [10])?
Answer: 8 µg/mL (≈ 20.1 µM)

Question: And the MIC (Clostridium difficile; [11])?
Answer: 4 µg/mL (≈ 10.1 µM)

Question: And the MIC (Clostridium difficile; [12])?
Answer: 8 µg/mL (≈ 20.1 µM)

Question: What about the MIC (Clostridium difficile; [13]) of the same molecule?
Answer: 8 µg/mL (≈ 20.1 µM)

Question: What about the MIC (Clostridium difficile; [14]) of the same molecule?
Answer: 8 µg/mL (≈ 20.1 µM)

Question: What about the MIC (Clostridium difficile; [15]) of the same molecule?
Answer: 8 µg/mL (≈ 20.1 µM)

Question: What about the MIC (Clostridium difficile; [16]) of the same molecule?
Answer: 8 µg/mL (≈ 20.1 µM)

Question: What about the MIC (Clostridium difficile; [17]) of the same molecule?
Answer: 4 µg/mL (≈ 10.1 µM)

Question: And the MIC (Clostridium difficile; [18])?
Answer: 8 µg/mL (≈ 20.1 µM)

Question: And the MIC (Clostridium difficile; [19])?
Answer: 2 to 8 µg/mL (≈ 5.03 to 20.1 µM)

Question: What about the MIC (E. faecalis; E. faecalis B3196) of the same molecule?
Answer: 16 µg/mL (≈ 40.2 µM)

Question: What about the MIC (E. faecalis; E. faecalis B3286) of the same molecule?
Answer: 32 µg/mL (≈ 80.5 µM)

Question: What about the MIC (E. faecalis; E. faecalis B3336) of the same molecule?
Answer: 16 µg/mL (≈ 40.2 µM)

Question: And the MIC (E. faecalis; E. faecalis SF24397)?
Answer: 16 µg/mL (≈ 40.2 µM)

Question: And the MIC (E. faecalis; [20])?
Answer: 16 µg/mL (≈ 40.2 µM)

Question: And the MIC [2]?
Answer: 8 to 32 µg/mL (≈ 20.1 to 80.5 µM)

Question: What about the “toxicity to HRT-18 cells” value [3] of the same molecule?
Answer: survived

Question: What about the MIC (E. faecium; [21]) of the same molecule?
Answer: 8 µg/mL (≈ 20.1 µM)

Question: And the MIC (E. faecium; E. faecium E1071)?
Answer: 16 µg/mL (≈ 40.2 µM)

Question: What about the MIC (E. faecium; E. faecium UAA714) of the same molecule?
Answer: 16 µg/mL (≈ 40.2 µM)

Question: For CCCCCCN(Cc1cccc2ccccc12)C(=O)[C@@H](N)CCCCN [NCK-6], which MIC (Clostridium difficile; [4]) is on record?
Answer: 64 µg/mL (≈ 173 µM)

Question: What about the MIC (Clostridium difficile; [5]) of the same molecule?
Answer: 64 µg/mL (≈ 173 µM)

Question: And the MIC (Clostridium difficile; [6])?
Answer: 64 µg/mL (≈ 173 µM)

Question: And the MIC (Clostridium difficile; [7])?
Answer: 32 µg/mL (≈ 86.6 µM)

Question: And the MIC (Clostridium difficile; [8])?
Answer: 64 µg/mL (≈ 173 µM)

Question: And the MIC (Clostridium difficile; [9])?
Answer: 32 µg/mL (≈ 86.6 µM)

Question: And the MIC (Clostridium difficile; [10])?
Answer: 64 µg/mL (≈ 173 µM)

Question: What about the MIC (Clostridium difficile; [11]) of the same molecule?
Answer: 64 µg/mL (≈ 173 µM)

Question: And the MIC (Clostridium difficile; [12])?
Answer: 64 µg/mL (≈ 173 µM)

Question: And the MIC (Clostridium difficile; [13])?
Answer: 64 µg/mL (≈ 173 µM)

Question: And the MIC (Clostridium difficile; [14])?
Answer: 64 µg/mL (≈ 173 µM)

Question: What about the MIC (Clostridium difficile; [15]) of the same molecule?
Answer: 64 µg/mL (≈ 173 µM)

Question: What about the MIC (Clostridium difficile; [16]) of the same molecule?
Answer: 64 µg/mL (≈ 173 µM)

Question: What about the MIC (Clostridium difficile; [17]) of the same molecule?
Answer: 32 µg/mL (≈ 86.6 µM)

Question: What about the MIC (Clostridium difficile; [18]) of the same molecule?
Answer: 32 µg/mL (≈ 86.6 µM)

Question: And the MIC (Clostridium difficile; [19])?
Answer: 32 µg/mL (≈ 86.6 µM)

Question: What about the MIC (E. faecalis; E. faecalis B3196) of the same molecule?
Answer: 128 µg/mL (≈ 346 µM)

Question: And the MIC (E. faecalis; E. faecalis B3286)?
Answer: 128 µg/mL (≈ 346 µM)

Question: What about the MIC (E. faecalis; E. faecalis B3336) of the same molecule?
Answer: 128 µg/mL (≈ 346 µM)

Question: And the MIC (E. faecalis; E. faecalis SF24397)?
Answer: 128 µg/mL (≈ 346 µM)

Question: And the MIC (E. faecalis; [20])?
Answer: 128 µg/mL (≈ 346 µM)

Question: What about the MIC [2] of the same molecule?
Answer: 64 to 128 µg/mL (≈ 173 to 346 µM)

Question: And the “toxicity to HRT-18 cells” value [3]?
Answer: survived

Question: What about the MIC (E. faecium; [21]) of the same molecule?
Answer: 64 µg/mL (≈ 173 µM)

Question: What about the MIC (E. faecium; E. faecium E1071) of the same molecule?
Answer: 128 µg/mL (≈ 346 µM)

Question: And the MIC (E. faecium; E. faecium UAA714)?
Answer: 128 µg/mL (≈ 346 µM)

Question: Which results are given for CCCCCCCCCCCCN(Cc1cccc2ccccc12)C(=O)[C@@H](N)CCCCN [NCK-12]?
Answer: MIC (Clostridium difficile; [4]): 4 µg/mL (≈ 8.82 µM); MIC (Clostridium difficile; [5]): 2 µg/mL (≈ 4.41 µM); MIC (Clostridium difficile; [6]): 2 µg/mL (≈ 4.41 µM); MIC (Clostridium difficile; [7]): 1 µg/mL (≈ 2.2 µM); MIC (Clostridium difficile; [8]): 2 µg/mL (≈ 4.41 µM); MIC (Clostridium difficile; [9]): 2 µg/mL (≈ 4.41 µM); MIC (Clostridium difficile; [10]): 2 µg/mL (≈ 4.41 µM); MIC (Clostridium difficile; [11]): 1 µg/mL (≈ 2.2 µM); MIC (Clostridium difficile; [12]): 4 µg/mL (≈ 8.82 µM); MIC (Clostridium difficile; [13]): 4 µg/mL (≈ 8.82 µM); MIC (Clostridium difficile; [14]): 2 µg/mL (≈ 4.41 µM); MIC (Clostridium difficile; [15]): 2 µg/mL (≈ 4.41 µM); MIC (Clostridium difficile; [16]): 2 µg/mL (≈ 4.41 µM); MIC (Clostridium difficile; [17]): 2 µg/mL (≈ 4.41 µM); MIC (Clostridium difficile; [18]): 2 µg/mL (≈ 4.41 µM); MIC (Clostridium difficile; [19]): 1 to 4 µg/mL (≈ 2.2 to 8.82 µM); MIC (E. faecalis; E. faecalis B3196): 4 µg/mL (≈ 8.82 µM); MIC (E. faecalis; E. faecalis B3286): 8 µg/mL (≈ 17.6 µM); MIC (E. faecalis; E. faecalis B3336): 8 µg/mL (≈ 17.6 µM); MIC (E. faecalis; E. faecalis SF24397): 8 µg/mL (≈ 17.6 µM); MIC (E. faecalis; [20]): 4 µg/mL (≈ 8.82 µM); MIC [2]: 4 to 8 µg/mL (≈ 8.82 to 17.6 µM); toxicity to HRT-18 cells [3]: survived; MIC (E. faecium; [21]): 4 µg/mL (≈ 8.82 µM); MIC (E. faecium; E. faecium E1071): 8 µg/mL (≈ 17.6 µM); MIC (E. faecium; E. faecium UAA714): 8 µg/mL (≈ 17.6 µM)
